Starred links: 1 amine or outer side, 2 acyl side, 3 side chain; linkers in the order of their positions; H or OH if unused. Positions of bridges follow the written chain, without caps; N, C: chain ends. Non-standard residues stand in square brackets, D forms with d. Residues, ends and D or L forms follow the SMILES beside them. *: point of attachment. hTyr(3S-OH,4S-OH,3'-OSO3H) = N[C@H](C(=O)O)[C@H](O)[C@@H](O)c1ccc(O)c(OS(=O)(=O)O)c1; Orn(4R-OH,5R-OH) = O=C([C@H](C[C@@H](O)[C@@H](O)N[*:3])N[*:1])[*:2]; Pro(3S-OH,4S-Me) = C[C@H]1CN[C@H](C(=O)O)[C@H]1O; X1 = CCCCCOc1ccc(-c2cc(-c3ccc(C(=O)*)cc3)no2)cc1; Gln(3R-OH) = NC(=O)C[C@@H](O)[C@H](N)C(=O)O; Hyp = O=C(O)[C@@H]1C[C@@H](O)CN1
Assays:
Assay type in all cases: functional
Aspergillus niger [1] = experiment: Antifungal activity against Aspergillus niger isolate CM-3506 obtained from respiratory tract infection of patient assessed as inhibition of hyphal growth after 48 hrs; conditions: isolate CM-3506, 48 h, read-out: MEC
Aspergillus tubingensis [2] = experiment: Antifungal activity against Aspergillus tubingensis isolate CM-3125 obtained from respiratory tract infection of patient assessed as inhibition of hyphal growth after 48 hrs; conditions: isolate CM-3125, 48 h, read-out: MEC
Aspergillus niger [3] = experiment: Antifungal activity against Aspergillus niger isolate CM-3257 obtained from respiratory tract infection of patient assessed as inhibition of hyphal growth after 48 hrs; conditions: isolate CM-3257, 48 h, read-out: MEC
Aspergillus niger [4] = experiment: Antifungal activity against Aspergillus niger isolate CM-3641 obtained from respiratory tract infection of patient assessed as inhibition of hyphal growth after 48 hrs; conditions: isolate CM-3641, 48 h, read-out: MEC
Aspergillus niger [5] = experiment: Antifungal activity against Aspergillus niger isolate CM-4004 obtained from assessed as inhibition of hyphal growth after 48 hrs; conditions: isolate CM-4004, 48 h, read-out: MEC
Aspergillus tubingensis [6] = experiment: Antifungal activity against Aspergillus tubingensis isolate CM-3177 obtained from respiratory tract infection of patient assessed as inhibition of hyphal growth after 48 hrs; conditions: isolate CM-3177, 48 h, read-out: MEC
Aspergillus tubingensis [7] = experiment: Antifungal activity against Aspergillus tubingensis isolate CM-4005 assessed as inhibition of hyphal growth after 48 hrs; conditions: isolate CM-4005, 48 h, read-out: MEC
Aspergillus tubingensis [8] = experiment: Antifungal activity against Aspergillus tubingensis isolate CM-3585 assessed as inhibition of hyphal growth after 48 hrs; conditions: isolate CM-3585, 48 h, read-out: MEC
Aspergillus niger [9] = experiment: Antifungal activity against Aspergillus niger isolate CM-4262 obtained from Ophthalmic assessed as inhibition of hyphal growth after 48 hrs; conditions: isolate CM-4262, 48 h, read-out: MEC
Aspergillus foetidus [10] = experiment: Antifungal activity against Aspergillus foetidus isolate CM-5264 obtained from respiratory tract infection of patient assessed as inhibition of hyphal growth after 48 hrs; conditions: isolate CM-5264, 48 h, read-out: MEC
Aspergillus tubingensis [11] = experiment: Antifungal activity against Aspergillus tubingensis isolate CM-4897 obtained from blood culture assessed as inhibition of hyphal growth after 48 hrs; conditions: isolate CM-4897, 48 h, read-out: MEC
Aspergillus tubingensis [12] = experiment: Antifungal activity against Aspergillus tubingensis isolate CM-3810 obtained from respiratory tract infection of patient assessed as inhibition of hyphal growth after 48 hrs; conditions: isolate CM-3810, 48 h, read-out: MEC
Aspergillus tubingensis [13] = experiment: Antifungal activity against Aspergillus tubingensis isolate CM-3123 obtained from respiratory tract infection of patient assessed as inhibition of hyphal growth after 48 hrs; conditions: isolate CM-3123, 48 h, read-out: MEC
Aspergillus tubingensis [14] = experiment: Antifungal activity against Aspergillus tubingensis isolate CM-4296 obtained from respiratory tract infection of patient assessed as inhibition of hyphal growth after 48 hrs; conditions: isolate CM-4296, 48 h, read-out: MEC
Aspergillus niger [15] = experiment: Antifungal activity against Aspergillus niger isolate CM-3586 obtained from catheter of patient assessed as inhibition of hyphal growth after 48 hrs; conditions: isolate CM-3586, 48 h, read-out: MEC
Aspergillus niger [16] = experiment: Antifungal activity against Aspergillus niger isolate CM-4316 obtained from respiratory tract infection of patient assessed as inhibition of hyphal growth after 48 hrs; conditions: isolate CM-4316, 48 h, read-out: MEC
Aspergillus tubingensis [17] = experiment: Antifungal activity against Aspergillus tubingensis isolate CM-4003 assessed as inhibition of hyphal growth after 48 hrs; conditions: isolate CM-4003, 48 h, read-out: MEC
Aspergillus niger [18] = experiment: Antifungal activity against Aspergillus niger isolate CM-3636 obtained from respiratory tract infection of patient assessed as inhibition of hyphal growth after 48 hrs; conditions: isolate CM-3636, 48 h, read-out: MEC
Aspergillus tubingensis [19] = experiment: Antifungal activity against Aspergillus tubingensis isolate CM-4000 by broth dilution method assessed as inhibition of hyphal growth after 48 hrs; conditions: isolate CM-4000, 48 h, read-out: MEC
Aspergillus tubingensis [20] = experiment: Antifungal activity against Aspergillus tubingensis isolate CM-5094 obtained from respiratory tract infection of patient assessed as inhibition of hyphal growth after 48 hrs; conditions: isolate CM-5094, 48 h, read-out: MEC
Aspergillus tubingensis [21] = experiment: Antifungal activity against Aspergillus tubingensis isolate CM-4001 assessed as inhibition of hyphal growth after 48 hrs; conditions: isolate CM-4001, 48 h, read-out: MEC
Aspergillus niger [22] = experiment: Antifungal activity against Aspergillus niger isolate CM-4213 obtained from respiratory tract infection of patient assessed as inhibition of hyphal growth after 48 hrs; conditions: isolate CM-4213, 48 h, read-out: MEC
Aspergillus tubingensis [23] = experiment: Antifungal activity against Aspergillus tubingensis isolate CM-4264 obtained from blood culture assessed as inhibition of hyphal growth after 48 hrs; conditions: isolate CM-4264, 48 h, read-out: MEC
Aspergillus tubingensis [24] = experiment: Antifungal activity against Aspergillus tubingensis isolate CM-4899 obtained from respiratory tract infection of patient assessed as inhibition of hyphal growth after 48 hrs; conditions: isolate CM-4899, 48 h, read-out: MEC
Aspergillus tubingensis [25] = experiment: Antifungal activity against Aspergillus tubingensis isolate CM-4688 obtained from respiratory tract infection of patient assessed as inhibition of hyphal growth after 48 hrs; conditions: isolate CM-4688, 48 h, read-out: MEC
Aspergillus foetidus [26] = experiment: Antifungal activity against Aspergillus foetidus isolate CM-4995 obtained from prosthesis assessed as inhibition of hyphal growth after 48 hrs; conditions: isolate CM-4995, 48 h, read-out: MEC
Aspergillus niger [27] = experiment: Antifungal activity against Aspergillus niger isolate CM-5095 obtained from respiratory tract infection of patient assessed as inhibition of hyphal growth after 48 hrs; conditions: isolate CM-5095, 48 h, read-out: MEC
Aspergillus foetidus [28] = experiment: Antifungal activity against Aspergillus foetidus isolate CM-4002 assessed as inhibition of hyphal growth after 48 hrs; conditions: isolate CM-4002, 48 h, read-out: MEC
Aspergillus niger [29] = experiment: Antifungal activity against Aspergillus niger isolate CM-3551 obtained from respiratory tract infection of patient assessed as inhibition of hyphal growth after 48 hrs; conditions: isolate CM-3551, 48 h, read-out: MEC
Aspergillus tubingensis [30] = experiment: Antifungal activity against Aspergillus tubingensis isolate CM-3654 obtained from blood culture assessed as inhibition of hyphal growth after 48 hrs; conditions: isolate CM-3654, 48 h, read-out: MEC
Aspergillus niger [31] = experiment: Antifungal activity against Aspergillus niger isolate CM-3236 obtained from respiratory tract infection of patient assessed as inhibition of hyphal growth after 48 hrs; conditions: isolate CM-3236, 48 h, read-out: MEC
Aspergillus tubingensis [32] = experiment: Antifungal activity against Aspergillus tubingensis isolate CM-4352 obtained from respiratory tract infection of patient assessed as inhibition of hyphal growth after 48 hrs; conditions: isolate CM-4352, 48 h, read-out: MEC
Aspergillus tubingensis [33] = experiment: Antifungal activity against Aspergillus tubingensis isolate CM-3507 obtained from respiratory tract infection of patient assessed as inhibition of hyphal growth after 48 hrs; conditions: isolate CM-3507, 48 h, read-out: MEC
Aspergillus niger [34] = experiment: Antifungal activity against Aspergillus niger isolate CM-3672 obtained from cutaneous layer of patient assessed as inhibition of hyphal growth after 48 hrs; conditions: isolate CM-3672, 48 h, read-out: MEC

CC[C@H](C)C[C@H](C)CCCCCCCCC(=O)N[C@H]1C[C@@H](O)[C@@H](NCCN)NC(=O)[C@@H]2[C@@H](O)CCN2C(=O)[C@H]([C@H](O)CCN)NC(=O)[C@H]([C@H](O)[C@@H](O)c2ccc(O)cc2)NC(=O)[C@@H]2C[C@@H](O)CN2C(=O)[C@H]([C@@H](C)O)NC1=O [CASPOFUNGIN]
minimal effective concentration (Aspergillus niger [1]): 0.15 µg/mL
minimal effective concentration (Aspergillus tubingensis [2]): 0.05 µg/mL
minimal effective concentration (Aspergillus niger [3]): 0.25 µg/mL
minimal effective concentration (Aspergillus niger [4]): 0.5 µg/mL
minimal effective concentration (Aspergillus niger [5]): 0.1 µg/mL
minimal effective concentration (Aspergillus tubingensis [6]): 0.05 µg/mL
minimal effective concentration (Aspergillus tubingensis [7]): 0.5 µg/mL
minimal effective concentration (Aspergillus tubingensis [8]): 0.37 µg/mL
minimal effective concentration (Aspergillus niger [9]): 0.13 µg/mL
minimal effective concentration (Aspergillus foetidus [10]): 0.06 µg/mL
minimal effective concentration (Aspergillus tubingensis [11]): 0.1 µg/mL
minimal effective concentration (Aspergillus tubingensis [12]): 0.5 µg/mL
minimal effective concentration (Aspergillus tubingensis [13]): 0.25 µg/mL
minimal effective concentration (Aspergillus tubingensis [14]): 0.25 µg/mL
minimal effective concentration (Aspergillus niger [15]): 1 µg/mL
minimal effective concentration (Aspergillus niger [16]): 0.25 µg/mL
minimal effective concentration (Aspergillus tubingensis [17]): 0.25 µg/mL
minimal effective concentration (Aspergillus niger [18]): 0.25 µg/mL
minimal effective concentration (Aspergillus tubingensis [19]): 0.1 µg/mL
minimal effective concentration (Aspergillus tubingensis [20]): 0.19 µg/mL
minimal effective concentration (Aspergillus tubingensis [21]): 0.11 µg/mL
minimal effective concentration (Aspergillus niger [22]): 0.39 µg/mL
minimal effective concentration (Aspergillus tubingensis [23]): 0.03 µg/mL
minimal effective concentration (Aspergillus tubingensis [24]): 0.1 µg/mL
minimal effective concentration (Aspergillus tubingensis [25]): 0.18 µg/mL
minimal effective concentration (Aspergillus foetidus [26]): 0.14 µg/mL
minimal effective concentration (Aspergillus niger [27]): 0.25 µg/mL
minimal effective concentration (Aspergillus foetidus [28]): 0.14 µg/mL
minimal effective concentration (Aspergillus niger [29]): 0.03 µg/mL
minimal effective concentration (Aspergillus tubingensis [30]): 0.14 µg/mL
minimal effective concentration (Aspergillus niger [31]): 0.25 µg/mL
minimal effective concentration (Aspergillus tubingensis [32]): 0.15 µg/mL
minimal effective concentration (Aspergillus tubingensis [33]): 0.06 µg/mL
minimal effective concentration (Aspergillus niger [34]): 0.15 µg/mL

CCCCCOc1ccc(-c2cc(-c3ccc(C(=O)N[C@H]4C[C@@H](O)[C@@H](O)NC(=O)[C@@H]5[C@@H](O)[C@@H](C)CN5C(=O)[C@H]([C@H](O)CC(N)=O)NC(=O)[C@H]([C@H](O)[C@@H](O)c5ccc(O)c(OS(=O)(=O)O)c5)NC(=O)[C@@H]5C[C@@H](O)CN5C(=O)[C@H]([C@@H](C)O)NC4=O)cc3)no2)cc1 [MICAFUNGIN] (X1-[Orn(4R-OH,5R-OH)]T[Hyp][hTyr(3S-OH,4S-OH,3'-OSO3H)][Gln(3R-OH)][Pro(3S-OH,4S-Me)]; lactam 1-C)
minimal effective concentration (Aspergillus niger [1]): 0.03 µg/mL
minimal effective concentration (Aspergillus tubingensis [2]): 0.03 µg/mL
minimal effective concentration (Aspergillus niger [3]): 0.03 µg/mL
minimal effective concentration (Aspergillus niger [4]): 0.03 µg/mL
minimal effective concentration (Aspergillus niger [5]): 0.03 µg/mL
minimal effective concentration (Aspergillus tubingensis [6]): 0.03 µg/mL
minimal effective concentration (Aspergillus tubingensis [7]): 0.03 µg/mL
minimal effective concentration (Aspergillus tubingensis [8]): 0.03 µg/mL
minimal effective concentration (Aspergillus niger [9]): 0.03 µg/mL
minimal effective concentration (Aspergillus foetidus [10]): 0.03 µg/mL
minimal effective concentration (Aspergillus tubingensis [11]): 0.03 µg/mL
minimal effective concentration (Aspergillus tubingensis [12]): 0.03 µg/mL
minimal effective concentration (Aspergillus tubingensis [13]): 0.03 µg/mL
minimal effective concentration (Aspergillus tubingensis [14]): 0.03 µg/mL
minimal effective concentration (Aspergillus niger [15]): 0.03 µg/mL
minimal effective concentration (Aspergillus niger [16]): 0.03 µg/mL
minimal effective concentration (Aspergillus tubingensis [17]): 0.03 µg/mL
minimal effective concentration (Aspergillus niger [18]): 0.03 µg/mL
minimal effective concentration (Aspergillus tubingensis [19]): 0.03 µg/mL
minimal effective concentration (Aspergillus tubingensis [20]): 0.03 µg/mL
minimal effective concentration (Aspergillus tubingensis [21]): 0.03 µg/mL
minimal effective concentration (Aspergillus niger [22]): 0.03 µg/mL
minimal effective concentration (Aspergillus tubingensis [23]): 0.03 µg/mL
minimal effective concentration (Aspergillus tubingensis [24]): 0.05 µg/mL
minimal effective concentration (Aspergillus tubingensis [25]): 0.03 µg/mL
minimal effective concentration (Aspergillus foetidus [26]): 0.03 µg/mL
minimal effective concentration (Aspergillus niger [27]): 0.03 µg/mL
minimal effective concentration (Aspergillus foetidus [28]): 0.03 µg/mL
minimal effective concentration (Aspergillus niger [29]): 0.03 µg/mL
minimal effective concentration (Aspergillus tubingensis [30]): 0.03 µg/mL
minimal effective concentration (Aspergillus niger [31]): 0.03 µg/mL
minimal effective concentration (Aspergillus tubingensis [32]): 0.03 µg/mL
minimal effective concentration (Aspergillus tubingensis [33]): 0.03 µg/mL
minimal effective concentration (Aspergillus niger [34]): 0.03 µg/mL
